Key:
[1] = target: RAF proto-oncogene serine/threonine-protein kinase (Homo sapiens) (UniProt P04049); test: Inhibition of cRaf assessed as activity remaining at 10 uM
[2] = target: Macrophage-stimulating protein receptor (Homo sapiens) (UniProt Q04912); test: Inhibition of Ron assessed as activity remaining at 10 uM
[3] = target: Glycogen synthase kinase-3 beta (Homo sapiens) (UniProt P49841); test: Inhibition of GSK3-beta assessed as activity remaining at 10 uM
[4] = target: Serine/threonine-protein kinase mTOR (Homo sapiens, UniProt P42345); test: Inhibition of mTOR assessed as activity remaining at 10 uM
[5] = target: Tyrosine-protein kinase ZAP-70 (Homo sapiens) (UniProt P43403); test: Inhibition of ZAP70 assessed as activity remaining at 10 uM
[6] = target: Serine/threonine-protein kinase D2 (Homo sapiens) (UniProt Q9BZL6); test: Inhibition of PKD2 assessed as activity remaining at 10 uM
[7] = target: Insulin receptor-related protein (Homo sapiens) (UniProt P14616); test: Inhibition of IRR assessed as activity remaining at 10 uM
[8] = Inhibition of AMPK assessed as activity remaining at 10 uM
[9] = target: Tyrosine-protein kinase JAK2 (Homo sapiens) (UniProt O60674); test: Inhibition of JAK2 assessed as activity remaining at 10 uM
[10] = Inhibition of p70S6K assessed as activity remaining at 10 uM
[11] = target: Serine/threonine-protein kinase PLK1 (Homo sapiens) (UniProt P53350); test: Inhibition of Plk1 assessed as activity remaining at 10 uM
[12] = target: MAP kinase-activated protein kinase 3 (Homo sapiens) (UniProt Q16644); test: Inhibition of MAPKAP-K3 assessed as activity remaining at 10 uM
[13] = target: Dual specificity mitogen-activated protein kinase kinase 1 (Homo sapiens) (UniProt Q02750); test: Inhibition of MEK1 assessed as activity remaining at 10 uM
[14] = target: Tyrosine-protein kinase SYK (Homo sapiens) (UniProt P43405); test: Inhibition of Syk assessed as activity remaining at 10 uM
[15] = target: Phosphatidylinositol 4,5-bisphosphate 3-kinase catalytic subunit alpha isoform (Homo sapiens, UniProt P42336); test: Inhibition of PI3Kalpha
[16] = target: T1, Serine/threonine-protein kinase Nek2 (Homo sapiens) (UniProt P51955); test: Inhibition of NEK2 assessed as activity remaining at 10 uM
T1 sequence (whole entry): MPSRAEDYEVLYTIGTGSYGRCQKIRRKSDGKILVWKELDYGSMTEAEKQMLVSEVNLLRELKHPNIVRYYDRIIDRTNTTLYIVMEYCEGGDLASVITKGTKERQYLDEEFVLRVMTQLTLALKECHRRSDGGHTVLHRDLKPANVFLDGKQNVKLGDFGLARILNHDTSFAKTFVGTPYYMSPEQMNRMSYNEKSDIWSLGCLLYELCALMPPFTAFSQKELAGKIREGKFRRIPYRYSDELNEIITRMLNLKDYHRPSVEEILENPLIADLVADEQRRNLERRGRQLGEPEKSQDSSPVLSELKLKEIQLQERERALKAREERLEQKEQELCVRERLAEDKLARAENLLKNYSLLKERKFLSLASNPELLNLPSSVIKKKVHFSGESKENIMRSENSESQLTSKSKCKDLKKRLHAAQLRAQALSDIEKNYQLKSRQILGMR

[17] = target: Tyrosine-protein kinase Lck (Homo sapiens) (UniProt P06239); test: Inhibition of Lck assessed as activity remaining at 10 uM
[18] = target: Tyrosine-protein kinase Fyn (Homo sapiens) (UniProt P06241); test: Inhibition of Fyn assessed as activity remaining at 10 uM
[19] = target: Tyrosine-protein kinase Lyn (Homo sapiens) (UniProt P07948); test: Inhibition of LYN-A assessed as activity remaining at 10 uM
[20] = target: T2, Calcium/calmodulin-dependent protein kinase type IV (Homo sapiens) (UniProt Q16566); test: Inhibition of CaMK4 assessed as activity remaining at 10 uM
T2 sequence (whole entry): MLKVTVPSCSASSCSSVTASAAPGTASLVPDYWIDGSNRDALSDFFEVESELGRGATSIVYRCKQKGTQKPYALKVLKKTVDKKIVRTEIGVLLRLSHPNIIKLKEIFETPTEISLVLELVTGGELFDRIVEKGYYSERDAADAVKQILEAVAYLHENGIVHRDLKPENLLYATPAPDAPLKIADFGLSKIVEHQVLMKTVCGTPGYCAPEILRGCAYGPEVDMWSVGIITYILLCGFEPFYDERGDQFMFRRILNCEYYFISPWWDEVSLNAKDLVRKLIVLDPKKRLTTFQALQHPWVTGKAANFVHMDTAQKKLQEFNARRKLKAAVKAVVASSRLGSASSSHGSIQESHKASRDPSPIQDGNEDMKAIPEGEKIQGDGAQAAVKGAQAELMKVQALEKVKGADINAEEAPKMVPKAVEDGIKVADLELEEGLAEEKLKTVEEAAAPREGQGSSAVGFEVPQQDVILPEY

[21] = Metabolic stability in rat hepatocytes assessed as compound remaining after 60 mins; format: ADME, cell-based, Hepatocyte; conditions: read-out: Stability
[22] = target: Glycogen synthase kinase-3 alpha (Homo sapiens, UniProt P49840); test: Inhibition of GSK3alpha
Glycogen synthase kinase-3 alpha, sequence (P49840 whole entry): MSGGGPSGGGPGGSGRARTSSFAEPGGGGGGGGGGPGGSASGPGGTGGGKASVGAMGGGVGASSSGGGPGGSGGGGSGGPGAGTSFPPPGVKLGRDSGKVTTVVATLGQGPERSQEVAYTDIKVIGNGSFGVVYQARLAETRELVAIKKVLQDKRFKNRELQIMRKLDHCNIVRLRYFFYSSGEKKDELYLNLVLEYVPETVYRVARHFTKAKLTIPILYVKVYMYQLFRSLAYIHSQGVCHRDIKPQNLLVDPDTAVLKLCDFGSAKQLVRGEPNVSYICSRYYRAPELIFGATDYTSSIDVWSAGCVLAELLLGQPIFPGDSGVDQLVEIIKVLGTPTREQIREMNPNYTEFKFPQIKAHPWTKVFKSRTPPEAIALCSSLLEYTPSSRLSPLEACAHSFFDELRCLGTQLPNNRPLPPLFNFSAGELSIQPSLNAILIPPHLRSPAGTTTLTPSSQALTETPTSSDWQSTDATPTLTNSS

Insulin receptor-related protein (Homo sapiens), sequence (P14616 27-742 limits assumed): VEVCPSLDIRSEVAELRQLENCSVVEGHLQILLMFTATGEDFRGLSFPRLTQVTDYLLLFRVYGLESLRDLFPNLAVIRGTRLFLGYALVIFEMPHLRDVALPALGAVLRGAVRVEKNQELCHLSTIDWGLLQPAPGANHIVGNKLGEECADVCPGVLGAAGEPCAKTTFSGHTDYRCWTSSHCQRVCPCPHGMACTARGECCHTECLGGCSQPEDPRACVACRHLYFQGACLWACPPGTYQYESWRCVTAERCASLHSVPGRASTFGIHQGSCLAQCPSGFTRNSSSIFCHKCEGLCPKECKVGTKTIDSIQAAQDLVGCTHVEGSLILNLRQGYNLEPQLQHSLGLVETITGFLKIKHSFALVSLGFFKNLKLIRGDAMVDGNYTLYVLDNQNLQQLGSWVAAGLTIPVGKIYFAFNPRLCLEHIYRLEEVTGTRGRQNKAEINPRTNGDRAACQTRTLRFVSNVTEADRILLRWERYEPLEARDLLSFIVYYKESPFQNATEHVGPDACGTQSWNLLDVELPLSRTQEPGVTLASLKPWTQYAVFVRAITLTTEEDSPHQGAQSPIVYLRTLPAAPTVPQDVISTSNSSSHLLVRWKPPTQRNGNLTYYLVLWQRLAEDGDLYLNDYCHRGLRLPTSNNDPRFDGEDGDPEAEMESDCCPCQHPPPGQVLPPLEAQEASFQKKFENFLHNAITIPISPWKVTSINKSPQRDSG
Insulin receptor-related protein (Homo sapiens), sequence (P14616 747-1297 limits assumed): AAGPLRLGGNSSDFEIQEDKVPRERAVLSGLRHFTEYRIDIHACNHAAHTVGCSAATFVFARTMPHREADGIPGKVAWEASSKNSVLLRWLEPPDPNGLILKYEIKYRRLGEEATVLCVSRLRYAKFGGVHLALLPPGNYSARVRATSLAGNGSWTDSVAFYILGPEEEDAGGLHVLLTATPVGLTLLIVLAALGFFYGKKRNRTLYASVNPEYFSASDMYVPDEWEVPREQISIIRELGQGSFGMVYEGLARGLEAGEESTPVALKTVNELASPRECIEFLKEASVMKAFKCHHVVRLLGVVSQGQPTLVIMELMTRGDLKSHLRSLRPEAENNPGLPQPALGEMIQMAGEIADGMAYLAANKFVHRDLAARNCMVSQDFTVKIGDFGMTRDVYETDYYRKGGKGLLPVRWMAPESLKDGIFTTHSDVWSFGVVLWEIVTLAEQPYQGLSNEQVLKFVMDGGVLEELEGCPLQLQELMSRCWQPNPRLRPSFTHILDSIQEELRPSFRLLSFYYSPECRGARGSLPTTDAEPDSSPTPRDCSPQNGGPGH
Glycogen synthase kinase-3 beta (Homo sapiens), sequence (P49841 whole entry, looked up): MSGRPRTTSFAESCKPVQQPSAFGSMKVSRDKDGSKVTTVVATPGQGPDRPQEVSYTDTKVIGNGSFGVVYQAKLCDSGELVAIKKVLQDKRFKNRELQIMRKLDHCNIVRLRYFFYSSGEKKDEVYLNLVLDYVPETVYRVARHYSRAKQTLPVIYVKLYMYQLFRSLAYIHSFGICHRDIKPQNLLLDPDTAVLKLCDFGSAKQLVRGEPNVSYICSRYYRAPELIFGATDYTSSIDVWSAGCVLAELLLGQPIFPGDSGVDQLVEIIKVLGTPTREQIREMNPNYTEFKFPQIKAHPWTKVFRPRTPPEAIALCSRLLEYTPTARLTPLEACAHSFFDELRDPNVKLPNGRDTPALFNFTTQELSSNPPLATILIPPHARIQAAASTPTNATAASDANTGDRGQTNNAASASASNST
Phosphatidylinositol 4,5-bisphosphate 3-kinase catalytic subunit alpha isoform, sequence (P42336 whole entry, canonical isoform): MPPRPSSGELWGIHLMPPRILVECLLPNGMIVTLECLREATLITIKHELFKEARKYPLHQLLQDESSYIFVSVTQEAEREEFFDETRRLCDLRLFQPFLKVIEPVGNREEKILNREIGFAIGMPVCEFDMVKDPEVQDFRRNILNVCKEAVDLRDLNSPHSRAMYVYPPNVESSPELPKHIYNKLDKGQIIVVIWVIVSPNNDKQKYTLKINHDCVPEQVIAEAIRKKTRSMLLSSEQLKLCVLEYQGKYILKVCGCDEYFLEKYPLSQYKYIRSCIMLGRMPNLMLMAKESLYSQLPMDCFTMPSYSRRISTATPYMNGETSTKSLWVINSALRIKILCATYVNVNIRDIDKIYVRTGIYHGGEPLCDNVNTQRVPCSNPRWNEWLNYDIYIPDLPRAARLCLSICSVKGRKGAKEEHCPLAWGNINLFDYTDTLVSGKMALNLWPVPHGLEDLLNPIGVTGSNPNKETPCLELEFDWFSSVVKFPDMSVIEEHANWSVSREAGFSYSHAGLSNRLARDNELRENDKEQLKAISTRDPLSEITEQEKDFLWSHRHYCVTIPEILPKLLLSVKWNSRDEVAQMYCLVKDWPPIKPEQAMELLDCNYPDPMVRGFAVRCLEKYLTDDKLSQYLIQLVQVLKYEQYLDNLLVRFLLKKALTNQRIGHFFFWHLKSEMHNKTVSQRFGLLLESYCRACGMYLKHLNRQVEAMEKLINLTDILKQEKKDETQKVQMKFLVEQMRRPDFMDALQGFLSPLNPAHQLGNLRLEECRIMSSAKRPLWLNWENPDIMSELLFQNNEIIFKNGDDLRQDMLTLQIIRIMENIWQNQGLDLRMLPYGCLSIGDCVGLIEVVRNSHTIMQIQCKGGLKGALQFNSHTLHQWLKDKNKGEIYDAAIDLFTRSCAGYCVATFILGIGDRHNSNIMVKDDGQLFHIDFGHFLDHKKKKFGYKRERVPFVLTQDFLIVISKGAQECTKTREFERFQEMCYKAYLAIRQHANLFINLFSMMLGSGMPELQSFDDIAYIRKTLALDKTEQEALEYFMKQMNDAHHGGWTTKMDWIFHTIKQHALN
Tyrosine-protein kinase Fyn (Homo sapiens), sequence (P06241 2-537 limits assumed): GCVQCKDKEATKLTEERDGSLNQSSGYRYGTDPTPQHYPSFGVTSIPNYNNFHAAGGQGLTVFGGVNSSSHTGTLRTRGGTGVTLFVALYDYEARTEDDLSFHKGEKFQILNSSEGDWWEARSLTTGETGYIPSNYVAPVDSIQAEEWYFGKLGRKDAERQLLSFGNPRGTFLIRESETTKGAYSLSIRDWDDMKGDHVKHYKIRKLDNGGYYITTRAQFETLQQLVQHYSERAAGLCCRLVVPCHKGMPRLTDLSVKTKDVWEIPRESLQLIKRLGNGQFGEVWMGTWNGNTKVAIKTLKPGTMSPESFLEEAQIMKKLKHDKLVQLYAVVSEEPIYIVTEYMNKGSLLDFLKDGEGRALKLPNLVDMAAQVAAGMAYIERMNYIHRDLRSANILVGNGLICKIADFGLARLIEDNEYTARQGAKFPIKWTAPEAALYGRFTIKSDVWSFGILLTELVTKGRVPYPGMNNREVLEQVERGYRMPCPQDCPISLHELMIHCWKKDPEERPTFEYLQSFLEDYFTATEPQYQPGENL
Dual specificity mitogen-activated protein kinase kinase 1 (Homo sapiens), sequence (Q02750 whole entry): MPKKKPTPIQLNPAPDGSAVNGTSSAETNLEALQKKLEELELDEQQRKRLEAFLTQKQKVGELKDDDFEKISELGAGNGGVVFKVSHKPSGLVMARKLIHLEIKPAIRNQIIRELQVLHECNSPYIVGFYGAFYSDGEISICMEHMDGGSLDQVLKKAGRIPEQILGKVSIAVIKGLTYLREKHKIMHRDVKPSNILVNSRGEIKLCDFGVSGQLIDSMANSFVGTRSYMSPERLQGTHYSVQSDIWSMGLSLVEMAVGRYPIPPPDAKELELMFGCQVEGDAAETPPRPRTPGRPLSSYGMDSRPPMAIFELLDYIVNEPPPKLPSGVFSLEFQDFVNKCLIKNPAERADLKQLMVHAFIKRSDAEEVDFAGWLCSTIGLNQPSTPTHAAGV
RAF proto-oncogene serine/threonine-protein kinase (Homo sapiens), sequence (P04049 whole entry): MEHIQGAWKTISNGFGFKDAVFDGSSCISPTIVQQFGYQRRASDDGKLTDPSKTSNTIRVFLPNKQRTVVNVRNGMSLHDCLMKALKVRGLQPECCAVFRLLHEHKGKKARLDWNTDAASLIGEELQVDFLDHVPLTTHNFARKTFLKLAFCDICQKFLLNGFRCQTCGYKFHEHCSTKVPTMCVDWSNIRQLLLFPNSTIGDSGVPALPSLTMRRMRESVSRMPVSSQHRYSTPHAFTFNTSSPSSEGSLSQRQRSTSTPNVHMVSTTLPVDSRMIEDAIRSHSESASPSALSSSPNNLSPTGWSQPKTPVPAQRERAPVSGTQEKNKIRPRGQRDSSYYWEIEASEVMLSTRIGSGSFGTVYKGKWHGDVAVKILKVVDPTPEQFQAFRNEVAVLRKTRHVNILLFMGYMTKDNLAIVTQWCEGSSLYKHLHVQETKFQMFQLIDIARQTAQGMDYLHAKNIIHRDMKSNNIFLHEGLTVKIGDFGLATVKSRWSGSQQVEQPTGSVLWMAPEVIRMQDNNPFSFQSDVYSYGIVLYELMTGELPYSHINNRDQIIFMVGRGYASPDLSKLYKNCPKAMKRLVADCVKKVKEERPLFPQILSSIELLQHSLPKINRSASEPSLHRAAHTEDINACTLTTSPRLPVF

Activity [1] | Activity [3] | Activity [7] | Activity [8] | Activity [10] | Activity [13] | Activity [14] | IC50 [15] | Activity [16] | Activity [18] | Activity [20] | IC50 [22] | SMILES | other results
70% | 70% | 90% | 101% | 96% | 84% | 48% | 2.6 µM | 103% | 102% | 103% |  | O=c1[nH]c2ncc(-c3ccc(-c4nc[nH]n4)cc3)nc2n1CC1CCOCC1 | Activity [2]: 95%; Activity [4]: 0%; Activity [5]: 99%; Activity [6]: 94%; Activity [9]: 98%; Activity [11]: 95%; Activity [12]: 94%; Activity [17]: 86%; Activity [19]: 96%
87% | 31% | 89% | 89% | 99% | 82% | 95% | 21.9 µM | 98% | 73% | 99% | 0.6 µM | CC(C)(O)c1ccc(-c2cnc3[nH]c(=O)n(CC4CCCCC4)c3n2)cc1 | remaining at 1 h [21]: 65%
84% | 10% | 92% | 76% | 86% | 79% | 40% | 20.1 µM | 98% | 67% | 101% | 0.99 µM | O=c1[nH]c2ncc(-c3ccc4[nH]cnc4c3)nc2n1CC1CCCCC1 | 

Reference: ChEMBL document CHEMBL1944561, “Discovery and SAR exploration of a novel series of imidazo[4,5-b]pyrazin-2-ones as potent and selective mTOR kinase inhibitors” (Bioorg Med Chem Lett, 2011)
